The text below walks through data of patent EP0775487A1, “TRIAZINE DERIVATIVE AND MEDICINE” (NIPPON SHINYAKU COMPANY, LIMITED, priority 1994, dated 1996).

Like-named read-outs stand apart in the source and are kept apart here. Marks after values point to notes of the source that are not given here.

In data set [1] the test system is BCG-LPS-induced fulminant hepatitis. Kind of data set: Inhibitory effect on BCG-LPS-induced fulminant hepatitis in mice (antihepatitis effect). In kind it is in vivo, BALB/C mice. To be noted: for Number of deaths/number of animals/used: 50 mg/kg orally 1 hour before LPS i.v., deaths at 48 hours, control mortality 80-100%; for inhibition at 50 mg/kg: Mus musculus, po, 50 mg/kg orally, plasma transaminase at hour 4 after LPS. The protocol: The antihepatitis action of the compound of the invention could be confirmed by the following test in mice. This test is the commonest animal test for evaluating the antihepatitis effect of drugs. It is known that the antihepatitis effect evaluated by this test method is highly correlated with the clinical effect in man (Kondo, Y. et al. Chem. Pharm. Bull. 38, 2887-2889, 1990). Method: Six-week-old male BALB/C mice were intravenously dosed with 1 mg of BCG and after 2 weeks, 50 mg/kg of the test drug was administered orally. Then, after 1 hour, 2.5 µg of lipopolysaccharide (LPS) was injected intravenously to induce hepatitis. To find the LPS-associated mortality, the percentage of deaths at 48 hours was calculated. The mortality in the control group was 80-100%. […] However, for reference's sake, blood was drawn from the orbital vein at hour 4 and the plasma transaminase (GOT, GPT) concentrations were determined. As a reference compound, 2,4-diamino-6-(2,5-dichlorophenyl)-1,3,5-triazine was used.

The test system of the next data set is GST-P-positive lesions. Kind of data set: Inhibitory effect on hepatic chemooncogenesis in rats (DEN/AAF/hepatectomy precancerous lesion model, GST-P immunostaining). Format: in vivo, F344 rats. The note with it: for GST-P^+ area (mm^2/cm^2) mean±S.E. / GST-P^+ foci (N/cm^2) mean±S.E.: 0.01% in chow from week 2 to final day (4-week experiment); for GST-P^+ area (mm^2/cm^2) inhibition (%) / GST-P^+ foci (N/cm^2) inhibition (%): 0.01% in chow, versus own control group. Here is the method: Method: Five-week-old male F344 rats (Slc), a precancerous lesion model was constructed using the following protocol in accordance with the method of Solt and Faber (Nature, 263, 702-703, 1976). [formula] • ↑ : DEN 200 mg/kg, i.p. • : 70% hepatectomy • : 0.02% AAF • : Diet or water • ←→ : Drug administration period
Thus, the duration of the experiment being set at 4 weeks, 200 mg/kg of diethylnitrosoamine (hereinafter referred to briefly as DEN) was first administered intraperitoneally. Beginning week 2, drinking water containing 0.02% of 2-acetylaminofluorene (hereinafter referred to briefly as AAF) was given ad libitum. At the beginning of week 3, 70% hepatectomy was performed. The test drug was mixed into the animal chow (F-2, Funabashi Farm) at the concentration of 0.01% and administered from week 2 through the final day of the experiment. The compound of Example 1 was used as the test drug and 2,4-diamino-6-(2,5-dichlorophenyl)-1,3,5-triazine as the reference compound.
On the final day of the experiment, all the animals were sacrificed by cervical dislocation under ether anaesthesia. Immediately a portion of the liver was excised, quick-frozen in dry ice-acetone, and stored until used. From the liver, 8 µm-thick frozen sections were prepared and using Vectastain ABC Kit (Funakoshi Yakuhin), immunostained by the ABC method (an enzyme-labeled antibody method) using anti-glutathione-S-transferase placental form (hereinafter referred to briefly as GST-P) antibody as the primary antibody. Thus, sections were returned to room temperature under anhydrous conditions and immersed in 10 mM phosphate-buffered saline (hereinafter referred to briefly as PBS) at pH 7.2 for 15 minutes. Then, goat normal serum and the primary antibody (a 500-fold dilution, 20 µl) were applied to the section and allowed to react overnight. After the reaction, the section was washed with PBS. Then, anti-rabbit secondary antibody was applied and the reaction was carried out for 30 minutes. After washing with PBS, avidin-biotin complex was applied and allowed to react for 30 minutes. The section was washed with PBS and treated with 0.1% diaminobenzidine (DAB) containing 0.02% of hydrogen peroxide for color development, dehydrated, and sealed.
The number of GST-P-positive lesions per cm^2 liver tissue section was counted under an optical microscope and the area was measured with an image analyzer (SPICCA-II, Japan Avionics). The significance testing of mean values was made by Student's t-test and the result was evaluated at the 5% leval of significance.

Data set [2] is described as follows: Effect on body weight gain. Format: in vivo. The note with it: 1,000 mg/kg administered repeatedly (daily), rats. The protocol:
The compound of Example 1 was administered to rats daily to investigate its effect on body weight gain.

The next data set is described as follows: Acute toxicity. In kind it is in vivo, Rats (SD strain). The note with it: 1 g/kg orally by gastric gavage, fasted rats, groups of 5. Here is the method:
Rats of either sex (SD strain, […]) were used in groups of 5. The animals were deprived of food from the previous day (16-18 hours before) and 1 g/kg of the compound of Example 1 was administered orally by gastric gavage. Then, deaths during the subsequent one-week period were recorded.

Usually inhibition stands for the relative decrease from the control value, in per cent.

On to `Cl.Cl.NCC1CCN(c2nc(N)nc(-c3cc(Cl)ccc3Cl)n2)C1` (stereo not shown) [Example 62, 2-Amino-4-(2,5-dichlorophenyl)-6-(3-aminomethyl-1-pyrrolidinyl)-1,3,5-triazine dihydrochloride], for which, in data set [1], the “Number of deaths/number of animals/used” value is 0/15**. Further, the inhibition at 50 mg/kg came to 29% in data set [1] (read-out: % Inhibition GOT) and 38% in data set [1] (read-out: % Inhibition GPT).

Consider `Nc1nc(-c2cc(Cl)ccc2Cl)nc(N2CCC(O)C2)n1.O=C(O)/C=C\C(=O)O` (stereo not shown) [Example 31, 2-Amino-4-(2,5-dichlorophenyl)-6-(3-hydroxy-1-pyrrolidinyl)-1,3,5-triazine maleate], for which the “Number of deaths/number of animals/used” value in data set [1] is recorded as 1/18**. The inhibition at 50 mg/kg in data set [1] (read-out: % Inhibition GOT) stood at 47%; in data set [1] (read-out: % Inhibition GPT), 34%.

Turning to `CN(C)c1nc(N)nc(-c2cc(Cl)ccc2Cl)n1` [Example 3, 2-Amino-4-(2,5-dichlorophenyl)-6-dimethylamino-1,3,5-triazine], the “Number of deaths/number of animals/used” value in data set [1] is on record as 0/10**. Moreover, the inhibition at 50 mg/kg in data set [1] (read-out: % Inhibition GOT) turned out to be 37%; in data set [1] (read-out: % Inhibition GPT) it was 38%.

On to `Nc1nc(N)nc(-c2cc(Cl)ccc2Cl)n1` [Reference Compound, 2,4-diamino-6-(2,5-dichlorophenyl)-1,3,5-triazine, reference compound], for which, in the data set on GST-P-positive lesions, the “GST-P^+ area (mm^2/cm^2) mean±S.E.” value was found to be 3.6±0.7 mm^2/cm^2, the “GST-P^+ foci (N/cm^2) mean±S.E.” value is 67.9± 8.7 N/cm^2, the “GST-P^+ area (mm^2/cm^2) inhibition (%)” value amounted to 7.7% and the “GST-P^+ foci (N/cm^2) inhibition (%)” value turned out to be 9.7%. Besides, the “Number of deaths/number of animals/used” value in data set [1] is recorded as 0/10*. Also, the inhibition at 50 mg/kg in data set [1] (read-out: % Inhibition GOT) was determined as 21%. Besides, the inhibition at 50 mg/kg in data set [1] (read-out: % Inhibition GPT) is -6%.

Turning to `CNc1nc(N)nc(-c2cc(Cl)ccc2Cl)n1` [Example 2, 2-Amino-4-(2,5-dichlorophenyl)-6-methylamino-1,3,5-triazine], in data set [1], the “Number of deaths/number of animals/used” value is 0/10**. The results for the inhibition at 50 mg/kg in data set [1] (read-out: % Inhibition GOT) and in data set [1] (read-out: % Inhibition GPT) were 46% and 33%, respectively.

As to `Nc1nc(-c2cc(Cl)ccc2Cl)nc(N(CCO)CCO)n1` [Example 1, 2-amino-4-[N,N-bis(2-hydroxyethyl)amino]-6-(2,5-dichlorophenyl)-1,3,5-triazine], the “effect on body weight gain” value in data set [2] was “did not affect body weight gain”. Further, in the data set with GST-P-positive lesions, the “GST-P^+ area (mm^2/cm^2) mean±S.E.” value was determined as 0.8± 0.2 mm^2/cm^2, the “GST-P^+ foci (N/cm^2) mean±S.E.” value came out at 41.5± 5.2 N/cm^2, the “GST-P^+ area (mm^2/cm^2) inhibition (%)” value is 48.6% and the “GST-P^+ foci (N/cm^2) inhibition (%)” value is 28.9%. The “deaths during the subsequent one-week period” value in the data set “Acute toxicity” is reported as “no death was found at all”. The “Number of deaths/number of animals/used” value in data set [1] is on record as 2/10**. In addition, the inhibition at 50 mg/kg in data set [1] (read-out: % Inhibition GOT) is 37%. In data set [1] (read-out: % Inhibition GPT), the inhibition at 50 mg/kg turned out to be 17%.

In the case of `CN(CCO)c1nc(N)nc(-c2cc(Cl)ccc2Cl)n1` [Example 5, 2-Amino-4-(2,5-dichlorophenyl)-6-[N-methyl-N-(2-hydroxyethyl)amino]-1,3,5-triazine], in data set [1], the “Number of deaths/number of animals/used” value is reported as 0/10**. Further, the inhibition at 50 mg/kg was 43% in data set [1] (read-out: % Inhibition GOT) and 18% in data set [1] (read-out: % Inhibition GPT).

Regarding `Cl.Nc1nc(-c2cc(Cl)ccc2Cl)nc(N2CCC[C@H]2CO)n1` [Example 32, (S)-2-amino-4-(2,5-dichlorophenyl)-6-(2-hydroxymethyl-1-pyrrolidinyl)-1,3,5-triazine hydrochloride], the “Number of deaths/number of animals/used” value in data set [1] is 0/18**. In addition, the inhibition at 50 mg/kg was found to be 62% in data set [1] (read-out: % Inhibition GOT) and 60% in data set [1] (read-out: % Inhibition GPT).

In the case of `Nc1nc(-c2cc(Cl)ccc2Cl)nc(N2CCCC(O)C2)n1` (stereo not shown) [Example 37, 2-Amino-4-(2,5-dichlorophenyl)-6-(3-hydroxy-1-piperidinyl)-1,3,5-triazine], the “Number of deaths/number of animals/used” value in data set [1] was 0/18**. Moreover, the inhibition at 50 mg/kg was 43% in data set [1] (read-out: % Inhibition GOT) and 38% in data set [1] (read-out: % Inhibition GPT).

For the molecule `Nc1nc(-c2cc(Cl)ccc2Cl)nc(N2CCC(=O)CC2)n1` [Example 56, 2-Amino-4-(2,5-dichlorophenyl)-6-(4-oxo-1-piperidinyl)-1,3,5-triazine], the “Number of deaths/number of animals/used” value in data set [1] is 0/15**. Also, the inhibition at 50 mg/kg is 38% in data set [1] (read-out: % Inhibition GOT) and 37% in data set [1] (read-out: % Inhibition GPT).

As for `Nc1nc(-c2cc(Cl)ccc2Cl)nc(N2CCCC2)n1` [Example 30, 2-Amino-4-(2,5-dichlorophenyl)-6-pyrrolidino-1,3,5-triazine], the “Number of deaths/number of animals/used” value in data set [1] is reported as 0/18**. Besides, the inhibition at 50 mg/kg in data set [1] (read-out: % Inhibition GOT) was 45%; in data set [1] (read-out: % Inhibition GPT), 31%.

In the case of `Nc1nc(-c2cc(Cl)ccc2Cl)nc(N2CCOCC2)n1` [Reference Example 5, 2-Amino-4-(2,5-dichlorophenyl)-6-morpholino-1,3,5-triazine], the “Number of deaths/number of animals/used” value in data set [1] is 0/18**. Also, the inhibition at 50 mg/kg in data set [1] (read-out: % Inhibition GOT) is 58%; in data set [1] (read-out: % Inhibition GPT), 45%.

Turning to `Cc1ccc(OCCN2CCN(c3nc(N)nc(-c4cc(Cl)ccc4Cl)n3)CC2)cc1` [Example 21, 2-Amino-4-(2,5-dichlorophenyl)-6-[4-[2-(4-methylphenoxy)ethyl]piperazin-1-yl]-1,3,5-triazine], the “Number of deaths/number of animals/used” value in data set [1] is recorded as 0/10**. In addition, the figures for the inhibition at 50 mg/kg in data set [1] (read-out: % Inhibition GOT) and in data set [1] (read-out: % Inhibition GPT) were 29% and 10%, respectively.

Consider `Cl.Nc1nc(-c2cc(Cl)ccc2Cl)nc(N2CCC[C@@H]2CO)n1` [Example 33, (R)-2-amino-4-(2,5-dichlorophenyl)-6-(2-hydroxymethyl-1-pyrrolidinyl)-1,3,5-triazine hydrochloride], for which the “Number of deaths/number of animals/used” value in data set [1] was 0/18**. Also, the results for the inhibition at 50 mg/kg in data set [1] (read-out: % Inhibition GOT) and in data set [1] (read-out: % Inhibition GPT) were 39% and 41%, respectively.

As to `COCCNc1nc(N)nc(-c2cc(Cl)ccc2Cl)n1` [Example 6, 2-Amino-4-(2,5-dichlorophenyl)-6-(2-methoxyethylamino)-1,3,5-triazine], the “Number of deaths/number of animals/used” value in data set [1] is on record as 2/10**. In addition, the inhibition at 50 mg/kg in data set [1] (read-out: % Inhibition GOT) was found to be 34%; in data set [1] (read-out: % Inhibition GPT) it was 29%.
